Results from US9963442B2, “Pyridones as herbicides” (E I DU PONT DE NEMOURS AND COMPANY, priority 2014, dated 2018).

Legend:
Assay type in all cases: in vivo
[1] = tested on: Italian ryegrass (Lolium multiflorum); assay: Test A preemergence, directed soil spray; conditions: approx. 10 days
Description: (§1) Seeds of plant species selected from barnyardgrass (Echinochloa crus-galli), kochia (Kochia scoparia), ragweed (common ragweed, Ambrosia elatior), Italian ryegrass (Lolium multiflorum), giant foxtail (Setaria faberii), and pigweed (Amaranthus retroflexus) were planted into a blend of loam soil and sand and treated preemergence with a directed soil spray using test chemicals formulated in a non-phytotoxic solvent mixture which included a surfactant. At the same time, plants selected from these weed species and also wheat (Triticum aestivum), corn (Zea mays), blackgrass (Alopecurus myosuroides), and galium (catchweed bedstraw, Galium aparine) were planted in pots containing the same blend of loam soil and sand and treated with postemergence applications of test chemicals formulated in the same manner. Plants ranged in height from 2 to 10 cm and were in the one- to two-leaf stage for the postemergence treatment. Treated plants and untreated controls were maintained in a greenhouse for approximately 10 days, after which time all treated plants were compared to untreated controls and visually evaluated for injury. Plant response ratings, summarized in Table A, are based on a 0 to 100 scale where 0 is no effect and 100 is complete control. A dash (-) response means no test result.

[2] = tested on: barnyardgrass (Echinochloa crus-galli); assay: Test A preemergence, directed soil spray; conditions: approx. 10 days
Description: as §1

[3] = tested on: giant foxtail (Setaria faberii); assay: Test A preemergence, directed soil spray; conditions: approx. 10 days
Description: as §1

[4] = tested on: kochia (Kochia scoparia); assay: Test A preemergence, directed soil spray; conditions: approx. 10 days
Description: as §1

[5] = tested on: pigweed (Amaranthus retroflexus); assay: Test A preemergence, directed soil spray; conditions: approx. 10 days
Description: as §1

[6] = tested on: ragweed (common ragweed, Ambrosia elatior); assay: Test A preemergence, directed soil spray; conditions: 125 g ai/ha, approx. 10 days
Description: as §1

[7] = tested on: Italian ryegrass (Lolium multiflorum); assay: Test A postemergence application; conditions: approx. 10 days
Description: as §1

[8] = tested on: barnyardgrass (Echinochloa crus-galli); assay: Test A postemergence application; conditions: approx. 10 days
Description: as §1

[9] = tested on: blackgrass (Alopecurus myosuroides); assay: Test A postemergence application; conditions: approx. 10 days
Description: as §1

[10] = tested on: corn (Zea mays); assay: Test A postemergence application; conditions: approx. 10 days
Description: as §1

[11] = tested on: galium (catchweed bedstraw, Galium aparine); assay: Test A postemergence application; conditions: approx. 10 days
Description: as §1

[12] = tested on: giant foxtail (Setaria faberii); assay: Test A postemergence application; conditions: approx. 10 days
Description: as §1

[13] = tested on: kochia (Kochia scoparia); assay: Test A postemergence application; conditions: approx. 10 days
Description: as §1

[14] = tested on: pigweed (Amaranthus retroflexus); assay: Test A postemergence application; conditions: approx. 10 days
Description: as §1

[15] = tested on: ragweed (common ragweed, Ambrosia elatior); assay: Test A postemergence application; conditions: approx. 10 days
Description: as §1

[16] = tested on: wheat (Triticum aestivum); assay: Test A postemergence application; conditions: approx. 10 days
Description: as §1

[17] = tested on: barnyardgrass (Echinochloa crus-galli); assay: Test B flooded paddy test; design: key: 0 = no effect, 100 = complete control; conditions: Flood, 250 g ai/ha applied to paddy water at 2-leaf stage; visually evaluated after 13 to 15 days; scale 0 (no effect) to 100 (complete control)
Method: (§2) Plant species in the flooded paddy test selected from rice (Oryza sativa), sedge, umbrella (small-flower umbrella sedge, Cyperus difformis), ducksalad (Heteranthera limosa), and barnyardgrass (Echinochloa crus-galli) were grown to the 2-leaf stage for testing. At time of treatment, test pots were flooded to 3 cm above the soil surface, treated by application of test compounds directly to the paddy water, and then maintained at that water depth for the duration of the test. Treated plants and controls were maintained in a greenhouse for 13 to 15 days, after which time all species were compared to controls and visually evaluated. Plant response ratings, summarized in Table B, are based on a scale of 0 to 100 where 0 is no effect and 100 is complete control. A dash (-) response means no test result.

[18] = tested on: ducksalad (Heteranthera limosa); assay: Test B flooded paddy test; design: key: 0 = no effect, 100 = complete control; conditions: Flood, 250 g ai/ha applied to paddy water at 2-leaf stage; visually evaluated after 13 to 15 days; scale 0 (no effect) to 100 (complete control)
Method: as §2

[19] = tested on: rice (Oryza sativa); assay: Test B flooded paddy test; design: key: 0 = no effect, 100 = complete control; conditions: Flood, 250 g ai/ha applied to paddy water at 2-leaf stage; visually evaluated after 13 to 15 days; scale 0 (no effect) to 100 (complete control)
Method: as §2

[20] = tested on: sedge, umbrella (small-flower umbrella sedge, Cyperus difformis); assay: Test B flooded paddy test; design: key: 0 = no effect, 100 = complete control; conditions: Flood, 250 g ai/ha applied to paddy water at 2-leaf stage; visually evaluated after 13 to 15 days; scale 0 (no effect) to 100 (complete control)
Method: as §2

Structure (SMILES): O=c1cccc(Oc2ncc(Cl)cn2)n1-c1ccc(F)cn1 [Compound 9]
- Plant response rating (0 to 100 scale, 0 no effect, 100 complete control), Ryegrass, Italian ([1]; 31 g ai/ha): 0
- Plant response rating (0 to 100 scale, 0 no effect, 100 complete control), Ryegrass, Italian ([1]; 125 g ai/ha): 0
- Plant response rating (0 to 100 scale, 0 no effect, 100 complete control), Barnyardgrass ([2]; 31 g ai/ha): 0
- Plant response rating (0 to 100 scale, 0 no effect, 100 complete control), Barnyardgrass ([2]; 125 g ai/ha): 0
- Plant response rating (0 to 100 scale, 0 no effect, 100 complete control), Foxtail, Giant ([3]; 31 g ai/ha): 10
- Plant response rating (0 to 100 scale, 0 no effect, 100 complete control), Foxtail, Giant ([3]; 125 g ai/ha): 70
- Plant response rating (0 to 100 scale, 0 no effect, 100 complete control), Kochia ([4]; 31 g ai/ha): 20
- Plant response rating (0 to 100 scale, 0 no effect, 100 complete control), Kochia ([4]; 125 g ai/ha): 50
- Plant response rating (0 to 100 scale, 0 no effect, 100 complete control), Pigweed ([5]; 31 g ai/ha): 50
- Plant response rating (0 to 100 scale, 0 no effect, 100 complete control), Pigweed ([5]; 125 g ai/ha): 80
- Plant response rating (0 to 100 scale, 0 no effect, 100 complete control), Ragweed [6]: 70
- Plant response rating (0 to 100 scale, 0 no effect, 100 complete control), Ryegrass, Italian ([7]; 31 g ai/ha): 0
- Plant response rating (0 to 100 scale, 0 no effect, 100 complete control), Ryegrass, Italian ([7]; 125 g ai/ha): 20
- Plant response rating (0 to 100 scale, 0 no effect, 100 complete control), Barnyardgrass ([8]; 31 g ai/ha): 0
- Plant response rating (0 to 100 scale, 0 no effect, 100 complete control), Barnyardgrass ([8]; 125 g ai/ha): 10
- Plant response rating (0 to 100 scale, 0 no effect, 100 complete control), Blackgrass ([9]; 31 g ai/ha): 0
- Plant response rating (0 to 100 scale, 0 no effect, 100 complete control), Blackgrass ([9]; 125 g ai/ha): 10
- Plant response rating (0 to 100 scale, 0 no effect, 100 complete control), Corn ([10]; 31 g ai/ha): 10
- Plant response rating (0 to 100 scale, 0 no effect, 100 complete control), Corn ([10]; 125 g ai/ha): 10
- Plant response rating (0 to 100 scale, 0 no effect, 100 complete control), Galium ([11]; 31 g ai/ha): 30
- Plant response rating (0 to 100 scale, 0 no effect, 100 complete control), Galium ([11]; 125 g ai/ha): 60
- Plant response rating (0 to 100 scale, 0 no effect, 100 complete control), Foxtail, Giant ([12]; 31 g ai/ha): 0
- Plant response rating (0 to 100 scale, 0 no effect, 100 complete control), Foxtail, Giant ([12]; 125 g ai/ha): 20
- Plant response rating (0 to 100 scale, 0 no effect, 100 complete control), Kochia ([13]; 31 g ai/ha): 70
- Plant response rating (0 to 100 scale, 0 no effect, 100 complete control), Kochia ([13]; 125 g ai/ha): 90
- Plant response rating (0 to 100 scale, 0 no effect, 100 complete control), Pigweed ([14]; 31 g ai/ha): 50
- Plant response rating (0 to 100 scale, 0 no effect, 100 complete control), Pigweed ([14]; 125 g ai/ha): 80
- Plant response rating (0 to 100 scale, 0 no effect, 100 complete control), Ragweed ([15]; 31 g ai/ha): 20
- Plant response rating (0 to 100 scale, 0 no effect, 100 complete control), Ragweed ([15]; 125 g ai/ha): 40
- Plant response rating (0 to 100 scale, 0 no effect, 100 complete control), Wheat ([16]; 31 g ai/ha): 0
- Plant response rating (0 to 100 scale, 0 no effect, 100 complete control), Wheat ([16]; 125 g ai/ha): 0
- Plant response rating, Barnyardgrass [17]: 0
- Plant response rating, Ducksalad [18]: 60
- Plant response rating, Rice [19]: 0
- Plant response rating, Sedge, Umbrella [20]: 40
